This is an account of results in patent US9493464B2, “Wee1 degradation inhibitors” (The Scripps Research Institute, priority 2012, dated 2016).

Experiment [1] concerns the target T1, FLT3 (Homo sapiens, UniProt P36888).
T1 construct: Reaction Biology Corporation (contract assay)
T1 sequence (P36888 27-993): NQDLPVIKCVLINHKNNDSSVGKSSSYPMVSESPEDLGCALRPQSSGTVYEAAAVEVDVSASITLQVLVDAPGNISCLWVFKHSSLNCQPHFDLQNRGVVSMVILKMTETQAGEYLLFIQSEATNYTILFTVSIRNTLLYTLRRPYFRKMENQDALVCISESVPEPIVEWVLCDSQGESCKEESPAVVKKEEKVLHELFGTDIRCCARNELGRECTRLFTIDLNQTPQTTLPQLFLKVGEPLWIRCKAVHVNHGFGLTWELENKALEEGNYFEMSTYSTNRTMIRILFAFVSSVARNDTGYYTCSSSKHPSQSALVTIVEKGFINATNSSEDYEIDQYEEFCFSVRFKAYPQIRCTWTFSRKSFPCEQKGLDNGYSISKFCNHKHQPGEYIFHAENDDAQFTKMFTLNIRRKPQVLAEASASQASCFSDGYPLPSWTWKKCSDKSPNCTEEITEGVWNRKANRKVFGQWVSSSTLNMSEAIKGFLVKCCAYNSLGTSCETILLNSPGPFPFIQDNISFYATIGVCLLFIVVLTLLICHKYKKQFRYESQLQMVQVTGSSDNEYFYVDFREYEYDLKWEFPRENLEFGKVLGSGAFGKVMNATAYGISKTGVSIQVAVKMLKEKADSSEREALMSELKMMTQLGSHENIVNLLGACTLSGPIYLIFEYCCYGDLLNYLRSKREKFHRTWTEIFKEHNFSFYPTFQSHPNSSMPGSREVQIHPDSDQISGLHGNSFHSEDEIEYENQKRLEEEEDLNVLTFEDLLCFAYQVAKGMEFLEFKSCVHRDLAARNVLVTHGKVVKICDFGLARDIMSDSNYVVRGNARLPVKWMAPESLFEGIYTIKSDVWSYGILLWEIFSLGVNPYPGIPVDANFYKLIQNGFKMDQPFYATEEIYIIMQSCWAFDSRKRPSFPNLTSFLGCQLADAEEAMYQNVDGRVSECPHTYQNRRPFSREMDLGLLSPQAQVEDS
Description: In vitro kinase assay, FLT3 (Reaction Biology Corporation). The experiment is classed as biochemical. Particulars: 10 μM ATP; read-out: FLT3 IC50. As to the method:
(§1) Compounds were tested in 10-dose IC50 mode with 3-fold serial dilution starting at 50 μM. […] Reactions were carried out at 10 μM ATP. Average and standard deviations of reactions carried out in triplicate are shown.
(§2) In vitro kinase assay to detect CK1 or FLT3 activity: CK1 and FLT3 assays as well as complete kinase profile of 296 kinases was performed by Reaction Biology Corporation. For FLT3 20 μM final Abltide was used, sequence: [[…]]. For CK1 (all isoforms) 20 μM CK1 tide was used, sequence: [KRRRAL[pS]VASLPGL] in a standard kinase assay with ^32P-ATP and purified kinase. Incorporation of ^32P-ATP into the peptide was measured after a filter-binding assay. In-house CK1d inhibition assays were performed using a standard homogenous time-resolved fluorescence resonance energy transfer (TR-FRET) format in 50 mM Hepes, pH 7.0, 2.5 mM MgCl2, 0.1 mg/ml bovine serum albumin, 1 mM DL-dithiothreitol, 0.01% Triton X-100 (all from Sigma-Aldrich). Briefly, the CK1δ substrate (DEKTDDE, containing CK1 consensus sequence; 4 μL of a 500 nM stock solution) is labeled with a small Ulight acceptor dye (PerkinElmer). In the presence of 10 μL of 10 nM CK1δ, the Ulight peptide is phosphorylated at a single amino acid that is specifically recognized by a europium chelate (Eu)-labeled phosphospecific antibody. Assays were performed in the presence of 2 μL of compound at different (measured) concentrations, and reactions were stopped by adding 10 μL of 4 nM Eu-anti-p-Topo-IIa (PerkinElmer) in Lance Detection Buffer (Perkin Elmer). Upon excitation of the Eu-labeled antibody, energy is transferred to the acceptor dye resulting in the emission of detected light at 665 nm.

Experiment [2] addresses CK1δ (Homo sapiens, UniProt P48730). Briefly: In vitro kinase assay, CK1d, 32P-ATP filter binding (Reaction Biology Corporation). The experiment is classed as biochemical. Particulars: 10 μM ATP; read-out: CK1δ IC50. Here is the method: as §1, §2
The subject of experiment [3] is HEK-SW cells. Description: Amyloid β 1-42 production (AlphaLISA). The class given is cell-based. Particulars: 1 μM; supernatant at 48 hours post plating; result in words. Here is the method: HEK-SW cells, which artificially overexpress mutated APP (K670N/M671L), the so-called Swedish mutation, were cultured on D-MEM supplemented with 10% FBS. HEK-SW cells were kindly provided by laboratory of Dr. Dennis Selkoe. HEK-SW cells were plated in 96 well plates (10,000 cells/well) and at 24 hours post plating replaced media and started treatments. […] DAPT, N [(3,5-Difluorophenyl)acetyl]-L-alanyl-2-phenyl]glycine-1,1-dimethylethyl ester, is a known inhibitor of γ-secretase purchased from TOCRIS Bioscience (Ellisville, Mo., USA). Supernatant of cells were collected at 48 hours post plating and concentration of Amyloid β 1-42 (Aβ 1-42) measured by AlphaLISA method (PerkinElmer, Waltham, Mass., USA) following instructions from the company.

The subject of experiment [4] is GCPs in organotypic cerebellar slices. Briefly: Organotypic cerebellar slice GCP migration assay. Particulars: 500 nM, 48 hours; result in words. The experiment is classed as cell-based, mice. From the text:
Cerebella from P7 mice were isolated and sliced using a vibratome. Subsequently, slices were electroporated with venus-GFP to visualize GCPs. […] Many GCPs migrate to the Purkinje cell layer in DMSO treated cells, but fewer do so in SR-653234 or SR-1277 treated slices. […] Phospho-Y15 Cdc2 is a measure of Wee1 activity. Skp-1 is used as a loading control.

In experiment [5] the test system is HeLa cells. Description: PI-FACS cell cycle analysis. Particulars: 24 hours, result in words. The experiment is classed as cell-based. From the text: FIG. 11 illustrates inhibition of CK1δ and CK1ε can induce an S/G2/M phase arrest.

pIC50: −log10 of the molar value. Several values for one entry are separate records, joined by “and”; a condition that tells them apart may be missing. Identical values can stand only once.

Chain of CK1δ (P48730 whole entry): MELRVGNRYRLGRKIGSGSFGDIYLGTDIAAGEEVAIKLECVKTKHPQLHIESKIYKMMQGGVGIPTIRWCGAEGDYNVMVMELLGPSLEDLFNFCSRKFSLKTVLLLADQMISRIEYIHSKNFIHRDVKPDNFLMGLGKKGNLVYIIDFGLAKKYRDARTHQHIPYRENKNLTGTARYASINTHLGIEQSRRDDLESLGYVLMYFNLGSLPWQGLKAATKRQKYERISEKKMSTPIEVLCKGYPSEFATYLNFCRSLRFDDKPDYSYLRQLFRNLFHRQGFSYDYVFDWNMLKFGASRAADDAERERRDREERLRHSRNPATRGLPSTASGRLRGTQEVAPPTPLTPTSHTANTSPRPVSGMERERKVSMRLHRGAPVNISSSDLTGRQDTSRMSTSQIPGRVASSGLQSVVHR

As to `O=[N+]([O-])c1cccc2[nH]c(CNc3nc(N4CCOCC4)nc4c3ncn4-c3ccsc3)nc12` [SR-1277], the values for the pIC50 in experiment [1] and in experiment [2] were 6.52 and 7.31, respectively. Besides, the Aβ1-42 production entry in experiment [3] was “inhibit Aβ1-42 production”. The “GCP migration to the Purkinje cell layer” value in experiment [4] was “fewer do so”. Also, the cell cycle arrest result in experiment [5] is given as “induced an S/G2/M arrest”.
For `c1ccc2[nH]c(CNc3nc(N4CCOCC4)nc4c3ncn4-c3ccsc3)nc2c1` [SR-653234], the pIC50 in experiment [1] was 6.79 and 7.00; in experiment [2], 6.79 and 6.27. Further, in experiment [3], the Aβ1-42 production entry was “inhibit Aβ1-42 production”. Also, the “GCP migration to the Purkinje cell layer” value in experiment [4] is “fewer do so”. The cell cycle arrest entry in experiment [5] is on record as “induced an S/G2/M arrest”.
